# According to patent publication US20240025906A1 (NEURON23, INC., priority 2022, published 2024):
# Where two headings read alike, the source gives them in different places.
# Tests used:
# [1] = biological target: T1, TYK2 JH2 (Homo sapiens, UniProt P29597); assay: TYK2 JH2 binding assay (KINOMEscan KdELECT competitive binding); details: TYK2 JH2 domain
# T1 construct: purchased DiscoverX (KINOMEscan KdELECT service); host or cells: E. coli BL21-derived (T7 phage display) or HEK-293
# In short: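 Competition binding, KdELECT format. Kinase (phage-tagged, E. coli BL21-derived host; or HEK-293, DNA-tagged) + ligand-coated streptavidin beads + cpd, 1 h RT, final DMSO 0.9%. Wash, elute 30 min with 0.5 μM non-biotinylated ligand; qPCR readout. Kd: 11-pt, 3-fold series.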
# [2] = test system: JAK1/TYK2 pSTAT5 (Tyr694/699) in THP-1 cell line; assay: IFNa-stimulated JAK1/TYK2 pSTAT5 (Tyr694/699) inhibition cellular assay, AlphaLISA; type: cell-based; details: THP-1 cells, AlphaLISA (Assay B)
# In short: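 The readout is AlphaLISA signal at 615 nm for phospho-STAT5 in THP-1 lysates after IFNa stimulation (added at 100 ng/mL, 30 min, 37 °C). Cells had compound for 1 h beforehand across eight 6-fold concentrations up to 10000 nM final. IC50s are 4PL fits with bottom and Hill slope constrained.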
# [3] = DiscoverX KINOMEscan KdELECT (Assay A), read-out: Biochemical TYK2_DiscoverX_JH2_BND_Kd
# [4] = Homo sapiens, IFNa-stimulated, read-out: Cellular_THP1_IFNa-pSTATS_TYK2
# [5] = KINOMEscan KdELECT (Assay A), read-out: Biochemical TYK2_DiscoverX_JH2_BND_Kd
# [6] = KINOMEscan KdELECT (Assay A), read-out: Biochemical TYK2_JH2_Kd
# [7] = Homo sapiens, IFNa-stimulated, read-out: Cellular THP1_IFNa-pSTATS_IC50
# T1 sequence (P29597 589-875 limits assumed): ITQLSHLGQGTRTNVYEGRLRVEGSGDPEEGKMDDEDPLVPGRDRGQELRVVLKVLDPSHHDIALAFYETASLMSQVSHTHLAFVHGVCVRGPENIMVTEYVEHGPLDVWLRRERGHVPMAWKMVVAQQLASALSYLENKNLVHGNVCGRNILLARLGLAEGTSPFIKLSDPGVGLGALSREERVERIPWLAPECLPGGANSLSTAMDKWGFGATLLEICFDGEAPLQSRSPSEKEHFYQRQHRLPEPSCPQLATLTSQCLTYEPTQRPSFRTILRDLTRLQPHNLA
SMILES,"Kd [1, 3] [nM]","IC50 [2, 4] [nM]","Kd [1, 5] [nM]",other results
"CNc1ncc(-c2nc3cc(N4CCO[C@H](C)C4)ccc3o2)c2cc(NC(=O)[C@H]3C[C@H]3C)ncc12 [Example 419, (1S,2R)-2-methyl-N-(8-(methylamino)-5-(5-((R)-2-methylmorpholino)benzo[d]oxazol-2-yl)-2,7-naphthyridin-3-yl)cyclopropane-1-carboxamide]",≤ 100,≤ 500,,
"CNc1ncc(-c2nc3cc(N4CCO[C@@H](C(C)(F)F)C4)ccc3o2)c2cc(NC(=O)C3CC3)ncc12 (single isomer, unassigned) [Example 332]",≤ 100,≤ 500,,
"CNc1ncc(C#Cc2ccncc2C(F)(F)F)c2cc(NC(=O)C3CC3)ncc12 [Example 646, N-(8-(methylamino)-5-((3-(trifluoromethyl)pyridin-4-yl)ethynyl)-2,7-naphthyridin-3-yl)cyclopropanecarboxamide]",,≤ 500,≤ 100,
"CNc1ncc(-c2nc3cc(N4CCOCC4)ccc3o2)c2cc(NC(=O)[C@@H]3C[C@@H]3C(F)(F)F)ncc12 (single isomer, unassigned) [Example 1067]",,,≤ 100,"IC50 ([2]; IFNa-stimulated pSTAT5 (Tyr694/699), read-out: Cellular_THP1_IFNa-pSTATS_TYK2): ≤ 500 nM"
"CNc1ncc(-c2nc3cc(C4CCNCC4)ccc3o2)c2cc(NC(=O)C3CC3)ncc12 [Example 359, N-(8-(methylamino)-5-(5-(piperidin-4-yl)benzo[d]oxazol-2-yl)-2,7-naphthyridin-3-yl)cyclopropanecarboxamide 2,2,2-trifluoroacetate]",≤ 100,≤ 500,,
"CNc1ncc(-c2nc3cc(OC[C@@H](C)OC)ccc3o2)c2cc(NC(=O)C3CC3)ncc12 [Example 241, (R)—N-(5-(5-(2-methoxypropoxy)benzo[d]oxazol-2-yl)-8-(methylamino)-2,7-naphthyridin-3-yl)cyclopropanecarboxamide]",≤ 100,≤ 500,,
"CNc1ncc(-c2nc3cccc(N4CCC4CO)c3o2)c2cc(NC(=O)C3CC3)ncc12 (centres unmarked) [Example 265, N-(5-(7-(2-(hydroxymethyl)azetidin-t-yl)benzo[d]oxazol-2-yl)-8-(methylamino)-2,7-naphthyridin-3-yl)cyclopropanecarboxamide]",≤ 100,≤ 500,,
"CCNc1ncc(-c2nc3ccc(C)cn3n2)c2cc(NC(=O)C3CC3)ncc12 [Example 517, N-(8-(ethylamino)-5-(6-methyl-[1,2,4]triazolo[1,5-a]pyridin-2-yl)-2,7-naphthyridin-3-yl)cyclopropanecarboxamide]",≤ 100,≤ 500,,
CNc1ncc(-c2nc3cc(N4CCC[C@H](C#N)C4)ccc3o2)c2cc(NC(=O)C3CC3)ncc12 [Example 293],≤ 100,≤ 500,,
"CNc1ncc(C#Cc2ccn3ncnc3c2)c2cc(NC(=O)C3CC3)ncc12 [Example 609, N-(5-([1,2,4]triazolo[1,5-a]pyridin-7-ylethynyl)-8-(methylamino)-2,7-naphthyridin-3-yl)cyclopropanecarboxamide]",,≤ 500,≤ 100,
"CNc1ncc(-c2nc3cc(N4CCO[C@@H](C(C)(C)O)C4)ccc3o2)c2cc(NC(=O)C3CC3)ncc12 (single isomer, unassigned) [Example 925]",,≤ 500,≤ 100,
"CNc1ncc(-c2c[nH]c3ncccc23)c2cc(NC(=O)C3CC3)ncc12 [Example 106, N-(8-(methylamino)-5-(1H-pyrrolo[2,3-b]pyridin-3-yl)-2,7-naphthyridin-3-yl)cyclopropanecarboxamide]",,,,"Kd [1, 6]: ≤ 100 nM; IC50 [2, 7]: > 500 nM"
"CNc1ncc(C#Cc2ccn3ccnc3c2)c2cc(NC(=O)C3CC3)ncc12 [Example 626, N-(5-(imidazo[1,2-a]pyridin-7-ylethynyl)-8-(methylamino)-2,7-naphthyridin-3-yl)cyclopropanecarboxamide]",,≤ 500,≤ 100,
"CNc1ncc(-c2nc3cc(OC)ccc3o2)c2cc(NC(=O)[C@@H]3C[C@@H]3C)ncc12 (racemic) [Example 383, N-(5-(5-methoxybenzo[d]oxazol-2-yl)-8-(methylamino)-2,7-naphthyridin-3-y1)-2-methylcyclopropane-1-carboxamide]",≤ 100,≤ 500,,
"CNc1ncc(C#Cc2cc(C#N)c(OC)cn2)c2cc(NC(=O)C3CC3)ncc12 [Example 730, N-(5-((4-cyano-5-methoxypyridin-2-yl)ethynyl)-8-(methylamino)-2,7-naphthyridin-3-yl)cyclopropanecarboxamide]",,> 500,≤ 100,
"CNc1ncc(C#Cc2cc3ccccn3n2)c2cc(NC(=O)[C@@H]3C[C@@H]3C(F)F)ncc12 (single isomer, unassigned) [Example 754]",,≤ 500,≤ 100,
"CNc1ncc(-c2ncc(C)s2)c2cc(NC(=O)C3CC3)ncc12 [Example 66, N-(8-(methylamino)-5-(5-methylthiazol-2-yl)-2,7-naphthyridin-3-yl)cyclopropanecarboxamide]",,,,"Kd [1, 6]: ≤ 100 nM; IC50 [2, 7]: > 500 nM"
"CNc1ncc(-c2nc3cc(N4CCC(F)C4)ccc3o2)c2cc(NC(=O)C3CC3)ncc12 (centres unmarked) [Example 943, N-(5-(5-(3-fluoropyrrolidin-1-yl)benzo[d]oxazol-2-yl)-8-(methylamino)-2,7-naphthyridin-3-yl)cyclopropanecarboxamide]",,≤ 500,≤ 100,
"CNc1ncc(-c2nc3ccccc3[nH]2)c2cc(NC(=O)C3CC3)ncc12 [Example 139, N-(5-(1H-benzo[d]imidazol-2-yl)-8-(methylamino)-2,7-naphthyridin-3-yl)cyclopropanecarboxamide]",,,,"Kd [1, 6]: ≤ 100 nM; IC50 [2, 7]: > 500 nM"
"CNc1ncc(C#Cc2cc3c(cc2F)nnn3C)c2cc(NC(=O)C3CC3)ncc12 [Example 685, N-(5-((5-fluoro-1-methyl-1H-benzo[d][1,2,3]triazol-6-yl)ethynyl)-8-(methylamino)-2,7-naphthyridin-3-yl)cyclopropanecarboxamide]",,≤ 500,≤ 100,
"[2H]C([2H])([2H])Oc1ccc2oc(-c3cnc(NC)c4cnc(NC(=O)C5CC5)cc34)nc2c1 [Example 195, N-(5-(5-(methoxy-d3)benzo[d]oxazol-2-yl)-8-(methylamino)-2,7-naphthyridin-3-yl)cyclopropanecarboxamide]",≤ 100,≤ 500,,
"CNc1ncc(C#Cc2ccc3nccnc3c2)c2cc(NC(=O)C3CC3)ncc12 [Example 627, N-(8-(methylamino)-5-(quinoxalin-6-ylethynyl)-2,7-naphthyridin-3-yl)cyclopropanecarboxamide]",,≤ 500,≤ 100,
"CCc1ccccc1-c1cnc(NC)c2cnc(NC(=O)C3CC3)cc12 [Example 11, N-(5-(2-ethylphenyl)-8-(methylamino)-2,7-naphthyridin-3-yl)cyclopropanecarboxamide]",,,,"Kd [1, 6]: 100 to 1000 nM; IC50 [2, 7]: > 500 nM"
"CNc1ncc(C#Cc2ccnc(C(F)(F)F)c2)c2cc(NC(=O)C3CC3)ncc12 [Example 623, N-(8-(methylamino)-5-((2-(trifluoromethyl)pyridin-4-yl)ethynyl)-2,7-naphthyridin-3-yl)cyclopropanecarboxamide]",,≤ 500,≤ 100,
"CNc1ncc(-c2nc3cc(N4CCO[C@@H](C)C4)ccc3o2)c2cc(NC(=O)[C@@H]3C[C@@H]3CF)ncc12 (racemic) [Example 410, 2-(fluoromethyl)-N-(8-(methylamino)-5-(5-((S)-2-methylmorpholino)benzo[d]oxazol-2-yl)-2,7-naphthyridin-3-yl)cyclopropane-1-carboxamide]",≤ 100,≤ 500,,
